Reference: ChEMBL document CHEMBL3612049, “Design, synthesis and molecular docking of salicylic acid derivatives containing metronidazole as a new class of antimicrobial agents” (Bioorg Med Chem, 2015)
pIC50: −log10 of the molar value. Converted amounts (≈) assume the structure as drawn.

test system: not listed separately; assay: Inhibition of Staphylococcus aureus TyrRS expressed in Escherichia coli BL21 using L-[ring-3,5-3H]-tyrosine preincubated for 10 mins by liquid scintillation counting; details: not given

Compound	pIC50
Cc1ccc(COc2ccccc2C(=O)OCCn2c([N+](=O)[O-])cnc2C)cc1	5.33
Cc1ncc([N+](=O)[O-])n1CCOC(=O)c1ccccc1OCc1ccc(C(C)C)cc1	5.48
Cc1ncc([N+](=O)[O-])n1CCOC(=O)c1ccccc1OCc1ccc(Cl)c(Cl)c1	5.64
Cc1ncc([N+](=O)[O-])n1CCOC(=O)c1ccccc1OCc1cc(F)c(F)c(F)c1	5.17
Cc1ncc([N+](=O)[O-])n1CCOC(=O)c1ccccc1OCc1ccc(Cl)c(F)c1	5.49
Cc1ncc([N+](=O)[O-])n1CCOC(=O)c1ccccc1OCc1ccccc1F	5.17
Cc1ncc([N+](=O)[O-])n1CCOC(=O)c1ccccc1OCc1ccc(F)cc1	5.24
Cc1ncc([N+](=O)[O-])n1CCOC(=O)c1ccccc1OCc1ccccc1C(F)(F)F	5.11
Cc1ncc([N+](=O)[O-])n1CCOC(=O)c1ccccc1OCc1cccc(Cl)c1	5.30
Cc1ncc([N+](=O)[O-])n1CCOC(=O)c1ccccc1OCc1ccc(Cl)cc1	5.32
COc1ccc(COc2ccccc2C(=O)OCCn2c([N+](=O)[O-])cnc2C)cc1	5.54
Cc1ncc([N+](=O)[O-])n1CCOC(=O)c1ccccc1OCc1ccc(Br)cc1	5.31

test system: not listed separately; assay: Cytotoxicity against human macrophages after 24 hrs by MTT assay; type: cell-based, Macrophage; details: not given

Compound	CC50 at 24 h
Cc1ccc(COc2ccccc2C(=O)OCCn2c([N+](=O)[O-])cnc2C)cc1	140 µM
Cc1ncc([N+](=O)[O-])n1CCOC(=O)c1ccccc1OCc1ccc(C(C)C)cc1	272 µM
Cc1ncc([N+](=O)[O-])n1CCOC(=O)c1ccccc1OCc1ccc(Cl)c(Cl)c1	188 µM
Cc1ncc([N+](=O)[O-])n1CCOC(=O)c1ccccc1OCc1cc(F)c(F)c(F)c1	267 µM
Cc1ncc([N+](=O)[O-])n1CCOC(=O)c1ccccc1OCc1ccc(Cl)c(F)c1	180 µM
Cc1ncc([N+](=O)[O-])n1CCOC(=O)c1ccccc1OCc1ccccc1F	155 µM
Cc1ncc([N+](=O)[O-])n1CCOC(=O)c1ccccc1OCc1ccc(F)cc1	157 µM
Cc1ncc([N+](=O)[O-])n1CCOC(=O)c1ccccc1OCc1ccccc1C(F)(F)F	233 µM
Cc1ncc([N+](=O)[O-])n1CCOC(=O)c1ccccc1OCc1cccc(Cl)c1	188 µM
Cc1ncc([N+](=O)[O-])n1CCOC(=O)c1ccccc1OCc1ccc(Cl)cc1	168 µM
COc1ccc(COc2ccccc2C(=O)OCCn2c([N+](=O)[O-])cnc2C)cc1	239 µM
Cc1ncc([N+](=O)[O-])n1CCOC(=O)c1ccccc1OCc1ccc(Br)cc1	198 µM

test system: Pseudomonas aeruginosa; assay: Antimicrobial activity against Pseudomonas aeruginosa ATCC 13525 after 18 hrs by broth microdilution method; type: functional; details: ATCC 13525, 18 h

Compound	MIC
Cc1ccc(COc2ccccc2C(=O)OCCn2c([N+](=O)[O-])cnc2C)cc1	12.5 µg/mL (≈ 31.6 µM)
Cc1ncc([N+](=O)[O-])n1CCOC(=O)c1ccccc1OCc1ccc(C(C)C)cc1	6.25 µg/mL (≈ 14.8 µM)
Cc1ncc([N+](=O)[O-])n1CCOC(=O)c1ccccc1OCc1ccc(Cl)c(Cl)c1	1.57 µg/mL (≈ 3.49 µM)
Cc1ncc([N+](=O)[O-])n1CCOC(=O)c1ccccc1OCc1cc(F)c(F)c(F)c1	50 µg/mL (≈ 115 µM)
Cc1ncc([N+](=O)[O-])n1CCOC(=O)c1ccccc1OCc1ccc(Cl)c(F)c1	6.25 µg/mL (≈ 14.4 µM)
Cc1ncc([N+](=O)[O-])n1CCOC(=O)c1ccccc1OCc1ccccc1F	50 µg/mL (≈ 125 µM)
Cc1ncc([N+](=O)[O-])n1CCOC(=O)c1ccccc1OCc1ccc(F)cc1	25 µg/mL (≈ 62.6 µM)
Cc1ncc([N+](=O)[O-])n1CCOC(=O)c1ccccc1OCc1ccccc1C(F)(F)F	100 µg/mL (≈ 223 µM)
Cc1ncc([N+](=O)[O-])n1CCOC(=O)c1ccccc1OCc1cccc(Cl)c1	12.5 µg/mL (≈ 30.1 µM)
Cc1ncc([N+](=O)[O-])n1CCOC(=O)c1ccccc1OCc1ccc(Cl)cc1	12.5 µg/mL (≈ 30.1 µM)
COc1ccc(COc2ccccc2C(=O)OCCn2c([N+](=O)[O-])cnc2C)cc1	6.25 µg/mL (≈ 15.2 µM)
Cc1ncc([N+](=O)[O-])n1CCOC(=O)c1ccccc1OCc1ccc(Br)cc1	12.5 µg/mL (≈ 27.2 µM)

test system: Escherichia coli; assay: Antimicrobial activity against Escherichia coli ATCC 35218 after 18 hrs by broth microdilution method; type: functional; details: ATCC 35218, 18 h

Compound	MIC
Cc1ccc(COc2ccccc2C(=O)OCCn2c([N+](=O)[O-])cnc2C)cc1	12.5 µg/mL (≈ 31.6 µM)
Cc1ncc([N+](=O)[O-])n1CCOC(=O)c1ccccc1OCc1ccc(C(C)C)cc1	6.25 µg/mL (≈ 14.8 µM)
Cc1ncc([N+](=O)[O-])n1CCOC(=O)c1ccccc1OCc1ccc(Cl)c(Cl)c1	3.13 µg/mL (≈ 6.95 µM)
Cc1ncc([N+](=O)[O-])n1CCOC(=O)c1ccccc1OCc1cc(F)c(F)c(F)c1	100 µg/mL (≈ 230 µM)
Cc1ncc([N+](=O)[O-])n1CCOC(=O)c1ccccc1OCc1ccc(Cl)c(F)c1	6.25 µg/mL (≈ 14.4 µM)
Cc1ncc([N+](=O)[O-])n1CCOC(=O)c1ccccc1OCc1ccccc1F	50 µg/mL (≈ 125 µM)
Cc1ncc([N+](=O)[O-])n1CCOC(=O)c1ccccc1OCc1ccc(F)cc1	25 µg/mL (≈ 62.6 µM)
Cc1ncc([N+](=O)[O-])n1CCOC(=O)c1ccccc1OCc1ccccc1C(F)(F)F	100 µg/mL (≈ 223 µM)
Cc1ncc([N+](=O)[O-])n1CCOC(=O)c1ccccc1OCc1cccc(Cl)c1	12.5 µg/mL (≈ 30.1 µM)
Cc1ncc([N+](=O)[O-])n1CCOC(=O)c1ccccc1OCc1ccc(Cl)cc1	25 µg/mL (≈ 60.1 µM)
COc1ccc(COc2ccccc2C(=O)OCCn2c([N+](=O)[O-])cnc2C)cc1	6.25 µg/mL (≈ 15.2 µM)
Cc1ncc([N+](=O)[O-])n1CCOC(=O)c1ccccc1OCc1ccc(Br)cc1	12.5 µg/mL (≈ 27.2 µM)

test system: Staphylococcus aureus; assay: Antimicrobial activity against Staphylococcus aureus ATCC 6538 after 18 hrs by broth microdilution method; type: functional; details: ATCC 6538, 18 h

Compound	MIC
Cc1ccc(COc2ccccc2C(=O)OCCn2c([N+](=O)[O-])cnc2C)cc1	3.13 µg/mL (≈ 7.92 µM)
Cc1ncc([N+](=O)[O-])n1CCOC(=O)c1ccccc1OCc1ccc(C(C)C)cc1	3.13 µg/mL (≈ 7.39 µM)
Cc1ncc([N+](=O)[O-])n1CCOC(=O)c1ccccc1OCc1ccc(Cl)c(Cl)c1	0.39 µg/mL (≈ 0.866 µM)
Cc1ncc([N+](=O)[O-])n1CCOC(=O)c1ccccc1OCc1cc(F)c(F)c(F)c1	25 µg/mL (≈ 57.4 µM)
Cc1ncc([N+](=O)[O-])n1CCOC(=O)c1ccccc1OCc1ccc(Cl)c(F)c1	3.13 µg/mL (≈ 7.21 µM)
Cc1ncc([N+](=O)[O-])n1CCOC(=O)c1ccccc1OCc1ccccc1F	12.5 µg/mL (≈ 31.3 µM)
Cc1ncc([N+](=O)[O-])n1CCOC(=O)c1ccccc1OCc1ccc(F)cc1	12.5 µg/mL (≈ 31.3 µM)
Cc1ncc([N+](=O)[O-])n1CCOC(=O)c1ccccc1OCc1ccccc1C(F)(F)F	100 µg/mL (≈ 223 µM)
Cc1ncc([N+](=O)[O-])n1CCOC(=O)c1ccccc1OCc1cccc(Cl)c1	6.25 µg/mL (≈ 15 µM)
Cc1ncc([N+](=O)[O-])n1CCOC(=O)c1ccccc1OCc1ccc(Cl)cc1	6.25 µg/mL (≈ 15 µM)
COc1ccc(COc2ccccc2C(=O)OCCn2c([N+](=O)[O-])cnc2C)cc1	1.57 µg/mL (≈ 3.82 µM)
Cc1ncc([N+](=O)[O-])n1CCOC(=O)c1ccccc1OCc1ccc(Br)cc1	6.25 µg/mL (≈ 13.6 µM)

test system: not listed separately; assay: Hemolytic activity in human erythrocytes assessed as hemoglobin release after 3 hrs by spectrophotometric analysis; type: ADME, cell-based, Erythrocyte; details: read-out: LC50

Compound	HC50 at 3 h
Cc1ccc(COc2ccccc2C(=O)OCCn2c([N+](=O)[O-])cnc2C)cc1	> 10 µM
Cc1ncc([N+](=O)[O-])n1CCOC(=O)c1ccccc1OCc1ccc(C(C)C)cc1	> 10 µM
Cc1ncc([N+](=O)[O-])n1CCOC(=O)c1ccccc1OCc1ccc(Cl)c(Cl)c1	> 10 µM
Cc1ncc([N+](=O)[O-])n1CCOC(=O)c1ccccc1OCc1cc(F)c(F)c(F)c1	> 10 µM
Cc1ncc([N+](=O)[O-])n1CCOC(=O)c1ccccc1OCc1ccc(Cl)c(F)c1	> 10 µM
Cc1ncc([N+](=O)[O-])n1CCOC(=O)c1ccccc1OCc1ccccc1F	> 10 µM
Cc1ncc([N+](=O)[O-])n1CCOC(=O)c1ccccc1OCc1ccc(F)cc1	> 10 µM
Cc1ncc([N+](=O)[O-])n1CCOC(=O)c1ccccc1OCc1ccccc1C(F)(F)F	> 10 µM
Cc1ncc([N+](=O)[O-])n1CCOC(=O)c1ccccc1OCc1cccc(Cl)c1	> 10 µM
Cc1ncc([N+](=O)[O-])n1CCOC(=O)c1ccccc1OCc1ccc(Cl)cc1	> 10 µM
COc1ccc(COc2ccccc2C(=O)OCCn2c([N+](=O)[O-])cnc2C)cc1	> 10 µM
Cc1ncc([N+](=O)[O-])n1CCOC(=O)c1ccccc1OCc1ccc(Br)cc1	> 10 µM

test system: Bacillus spizizenii; assay: Antimicrobial activity against Bacillus subtilis ATCC 6633 after 18 hrs by broth microdilution method; type: functional; details: ATCC 6633, 18 h

Compound	MIC
Cc1ccc(COc2ccccc2C(=O)OCCn2c([N+](=O)[O-])cnc2C)cc1	3.13 µg/mL (≈ 7.92 µM)
Cc1ncc([N+](=O)[O-])n1CCOC(=O)c1ccccc1OCc1ccc(C(C)C)cc1	3.13 µg/mL (≈ 7.39 µM)
Cc1ncc([N+](=O)[O-])n1CCOC(=O)c1ccccc1OCc1ccc(Cl)c(Cl)c1	0.78 µg/mL (≈ 1.73 µM)
Cc1ncc([N+](=O)[O-])n1CCOC(=O)c1ccccc1OCc1cc(F)c(F)c(F)c1	25 µg/mL (≈ 57.4 µM)
Cc1ncc([N+](=O)[O-])n1CCOC(=O)c1ccccc1OCc1ccc(Cl)c(F)c1	3.13 µg/mL (≈ 7.21 µM)
Cc1ncc([N+](=O)[O-])n1CCOC(=O)c1ccccc1OCc1ccccc1F	25 µg/mL (≈ 62.6 µM)
Cc1ncc([N+](=O)[O-])n1CCOC(=O)c1ccccc1OCc1ccc(F)cc1	12.5 µg/mL (≈ 31.3 µM)
Cc1ncc([N+](=O)[O-])n1CCOC(=O)c1ccccc1OCc1ccccc1C(F)(F)F	50 µg/mL (≈ 111 µM)
Cc1ncc([N+](=O)[O-])n1CCOC(=O)c1ccccc1OCc1cccc(Cl)c1	6.25 µg/mL (≈ 15 µM)
Cc1ncc([N+](=O)[O-])n1CCOC(=O)c1ccccc1OCc1ccc(Cl)cc1	12.5 µg/mL (≈ 30.1 µM)
COc1ccc(COc2ccccc2C(=O)OCCn2c([N+](=O)[O-])cnc2C)cc1	0.78 µg/mL (≈ 1.9 µM)
Cc1ncc([N+](=O)[O-])n1CCOC(=O)c1ccccc1OCc1ccc(Br)cc1	6.25 µg/mL (≈ 13.6 µM)
